From PMC12400318 (Biochemical Journal, 2025)

Key:
[1] = molecular target: T1, T. melanesiensis CtfAB (T. mel CtfAB; WT-CtfAB) (Thermosipho melanesiensis, UniProt A6LM39+A6LM40, A6LM39:E46S); settings: acetate from crystallisation buffer; second acetate in place of the catalytic glutamate carboxylate
T1 construct: gene Tmel_1136

[2] = molecular target: T2, T. melanesiensis CtfAB (T. mel CtfAB; WT-CtfAB) (Thermosipho melanesiensis, UniProt A6LM39+A6LM40); parameters: gene Tmel_1136; settings: rate-equation constant of substrate B (acetate) in the forward fit, not a separate inhibition assay; 100 mM Tris-HCl, 40 mM MgCl2, 5% glycerol, pH 7.5, 65 °C
T2 sequence (A6LM40 1-217): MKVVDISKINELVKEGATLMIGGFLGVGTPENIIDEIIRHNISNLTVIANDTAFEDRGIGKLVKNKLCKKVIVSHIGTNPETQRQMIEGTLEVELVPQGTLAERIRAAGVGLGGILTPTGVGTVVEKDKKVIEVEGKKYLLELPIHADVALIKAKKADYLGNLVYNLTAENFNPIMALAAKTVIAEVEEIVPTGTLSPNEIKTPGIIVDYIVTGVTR
T2 sequence (A6LM39 1-214): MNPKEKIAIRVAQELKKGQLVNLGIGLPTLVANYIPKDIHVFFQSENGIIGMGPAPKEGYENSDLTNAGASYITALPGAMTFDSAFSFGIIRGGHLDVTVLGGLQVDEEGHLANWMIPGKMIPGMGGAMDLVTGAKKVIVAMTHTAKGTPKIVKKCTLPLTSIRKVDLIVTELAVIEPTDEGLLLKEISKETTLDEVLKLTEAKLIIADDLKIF

[3] = molecular target: T3, T. melanesiensis CtfAB (T. mel CtfAB; WT-CtfAB) (Thermosipho melanesiensis, UniProt A6LM39+A6LM40, A6LM39:F42T/A6LM39:S45C); assay: X-ray crystal structure, […] Å; type: binding
T3 construct: gene Tmel_1136; co-expressed in E. coli Rosetta 2(DE3)pLysS; N-terminal 6xHis on CtfA, untagged CtfB; subunits Mr 23-25 kDa; heterotetramer (two CtfA-CtfB heterodimers) in crystals

[4] = molecular target: T4, T. melanesiensis CtfAB (T. mel CtfAB; WT-CtfAB) (Thermosipho melanesiensis, UniProt A6LM39+A6LM40, A6LM39:E46D); parameters: gene Tmel_1136; settings: acetate from crystallisation buffer; pocket next to residue 46
[5] = molecular target: T4, T. melanesiensis CtfAB (T. mel CtfAB; WT-CtfAB); assay: hydrolase activity assay; type: biochemical; parameters: gene Tmel_1136; co-expressed in E. coli Rosetta 2(DE3)pLysS; N-terminal 6xHis on CtfA, untagged CtfB; subunits Mr 23-25 kDa; heterotetramer (two CtfA-CtfB heterodimers) in crystals; settings: CoA hydrolase instead of transferase; acetate not required
[6] = molecular target: T2, T. melanesiensis CtfAB (T. mel CtfAB; WT-CtfAB); assay: acetoacetyl-CoA Mg-enolate consumption at […] nm; global ping-pong bi-bi fit with inhibition; type: biochemical; parameters: gene Tmel_1136; co-expressed in E. coli Rosetta 2(DE3)pLysS; N-terminal 6xHis on CtfA, untagged CtfB; subunits Mr 23-25 kDa; heterotetramer (two CtfA-CtfB heterodimers) in crystals; settings: read-out: Ki,Q
purified protein [7] = substrate: CC(=O)CC(=O)SCCNC(=O)CCNC(=O)[C@H](O)C(C)(C)COP(=O)(O)OP(=O)(O)OC[C@H]1O[C@@H](n2cnc3c(N)ncnc32)[C@H](O)[C@@H]1OP(=O)(O)O; assay: purified protein; type: biochemical, Thermosipho melanesiensis; settings: forward reaction, co-substrate acetate (18.75-375 mM), 100 mM Tris-HCl, 40 mM MgCl2, 5% glycerol, pH 7.5, 65 °C, abstract prints 135 μM
purified protein [8] = substrate: CC(=O)SCCNC(=O)CCNC(=O)[C@H](O)C(C)(C)COP(=O)(O)OP(=O)(O)OC[C@H]1O[C@@H](n2cnc3c(N)ncnc32)[C@H](O)[C@@H]1OP(=O)(O)O; assay: purified protein; type: biochemical, Thermosipho melanesiensis; settings: reverse reaction, co-substrate acetoacetate (3.75-18.75 mM), 100 mM Tris-HCl, 40 mM MgCl2, 5% glycerol, pH 7.5, 65 °C
purified protein [9] = substrate: CC(=O)CC(=O)O; assay: purified protein; type: biochemical, Thermosipho melanesiensis; settings: reverse reaction, co-substrate acetyl-CoA (0.033-0.4 mM), 100 mM Tris-HCl, 40 mM MgCl2, 5% glycerol, pH 7.5, 65 °C
purified protein [10] = substrate: CC(=O)O; assay: purified protein; settings: forward reaction, co-substrate acetoacetyl-CoA (0.025-0.4 mM), 100 mM Tris-HCl, 40 mM MgCl2, 5% glycerol, pH 7.5, 65 °C
[11] = molecular target: the molecule itself; assay: crystal structure; hanging drop, purified co-expressed CtfAB 5-6 mg/mL in 10 mM MOPS, 5% glycerol, 50 mM Na2SO4, 50 mM NaCl, 1 mM DTT, pH 7.5; reservoir 100 mM Na acetate pH 4.9-5.5, 6-10% PEG 3350; F42T/S45C co-crystal with 5-10 mM acetyl-CoA; space group P4(1)2(1)2

T4 sequence (A6LM39 entry or part of it E46D, one chain of several): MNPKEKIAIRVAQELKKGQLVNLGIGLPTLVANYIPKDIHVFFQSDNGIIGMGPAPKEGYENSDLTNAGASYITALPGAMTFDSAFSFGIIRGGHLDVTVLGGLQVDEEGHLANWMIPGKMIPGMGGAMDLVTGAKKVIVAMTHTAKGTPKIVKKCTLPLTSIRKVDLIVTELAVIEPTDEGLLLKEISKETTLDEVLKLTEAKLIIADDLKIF
T3 sequence (A6LM39 entry or part of it F42T/S45C, one chain of several): as the sequence (A6LM39 entry or part of it E46D, one chain of several) above, with F42T, S45C, D46E counted along it
T1 sequence (A6LM39 1-214 E46S, one chain of several): as the sequence (A6LM39 entry or part of it E46D, one chain of several) above, with D46S counted along it

For `CC(=O)O` [acetate], the “X-ray crystal structure, 2.6 Å” value [1] was “a second acetate molecule binds in the space normally occupied by the catalytic glutamate”, the “Ki,B” value [2] was 24.7 ± 16.6 mM and the “X-ray crystal structure, 1.9 Å” value ([3]; acetate from crystallisation buffer (100 mM Na acetate), two molecules near E46, acetyl-CoA also bound) was “difference density for two acetate molecules in the CtfAB F42TS45C-CoA structure”. For the same molecule, the “X-ray crystal structure, 2.2 Å” value [4] was “Acetate molecules were identified in every CtfAB structure in the substrate-binding pocket”.

In the case of `CC(=O)CC(=O)SCCNC(=O)CCNC(=O)[C@H](O)C(C)(C)COP(=O)(O)OP(=O)(O)OC[C@H]1O[C@@H](n2cnc3c(N)ncnc32)[C@H](O)[C@@H]1OP(=O)(O)O` [acetoacetyl-CoA], the hydrolase activity assay [5] is reported as “converted the transferase into a hydrolase, with activity confirmed on acetoacetyl-CoA”.

`CC(=O)SCCNC(=O)CCNC(=O)[C@H](O)C(C)(C)COP(=O)(O)OP(=O)(O)OC[C@H]1O[C@@H](n2cnc3c(N)ncnc32)[C@H](O)[C@@H]1OP(=O)(O)O` [acetyl-CoA] was tested, and the Ki [6] was 1.27 ± 0.276 mM and the “X-ray crystal structure, 1.9 Å” value ([3]; co-crystal with 5-10 mM acetyl-CoA, site in CtfB, pantetheine part partly disordered) was “A co-crystal of the mutant CtfB F42T/S45C and acetyl-CoA was grown”.

B1: T. melanesiensis CtfAB (T. mel CtfAB; WT-CtfAB) (Thermosipho melanesiensis BI429) (protein)
chain 1: T2 sequence (A6LM40 1-217)
chain 2: T2 sequence (A6LM39 1-214)
notes: co-expressed in E. coli Rosetta 2(DE3)pLysS; N-terminal 6xHis on CtfA, untagged CtfB; subunits Mr 23-25 kDa; heterotetramer (two CtfA-CtfB heterodimers) in crystals
B1 showed a Km (purified protein [7]) of 138 ± 28.8 µM, a Km (purified protein [8]) of 322 ± 41 µM and a Km (purified protein [9]) of 1655 ± 331 µM. It also gave a Km (purified protein [10]) of 84700 ± 15600 µM.

B2: Thermosipho melanesiensis CtfAB heterodimer (His6-CtfA with CtfB), wild type (complex)
chain 1: T2 sequence (A6LM40 1-217)
chain 2: T2 sequence (A6LM39 1-214)
notes: CoA transferase subunit A (CtfA) of Thermosipho melanesiensis, Tmel_1136, WP_012057350; as the chain of m1; 3-oxoacid CoA-transferase subunit B (CtfB) of Thermosipho melanesiensis, Tmel_1135, WP_012057349; as the chain of m2; Used for the self-association of the CtfAB heterodimer into a heterotetramer and higher oligomers; also called T. mel CtfAB; WT-CtfAB; not shown: His6, N-terminal, kept
With B2 the “stoichiometry N” value [11] was 2 heterodimers in the heterotetramer.
